According to patent US5980913A, “Peptides having immunomodulatory activity” (Biochem Pharma, Inc., priority 1994, dated 1999):
Where a SMILES comes first, the peptide text is derived from it.

What was measured:
[1] = tested on: C57BL/6 lymphocytes with irradiated DBA/2 cells; test: Mixed lymphocyte reaction (MLR), 3H thymidine uptake; format: cell-based, mice; settings: concentration not given; 0 not defined
From the text: 1. Cytotoxic T Lymphocytes (CTL) Mixed Lymphocyte Reaction (MLR) and Mitogenic Response Assays
The protocols used are described in Hudson L., Haay F., Pratical immunology, 3rd edition, Blackwell, Scientific publications, Oxford 1989, p. 158-162, and p.447.
Lymphocytes were isolated from C57BL/6 mice and DBA/2 mice in accordance to techniques well known in the art. Cell concentration was adjusted to 10×10^6 cell/ml for each assay. The cells isolated from DBA/2 mice were irradiated with 3000 Rads.
In a 6 well plate, each well was set up with:
The cells were incubated for five days at 37° C. in 5% CO2, after which CTL and MLR assays were performed.
b) Mixed Lymphocyte Reaction (MLR)
Mixed lymphocyte reaction is an in vitro counterpart of the allograft rejection. Briefly, lymphocyte activation (mitotic response) is obtained when cells from two inbred strains or from two outbred individuals of any species are mixed in in vitro culture. To have a unidirectional response, the proliferation of either cell type may be blocked with X-ray irradiation or mitomycin C treatment. After 4 days incubation, ^3 H thymidine uptake and cytotoxicity assays (CTL) were performed. The cells were then resuspended and 100 μl of cell suspension was deposited in each well of a 96 well plate. 1 μCi of tritiated thymidine was added for 6 hours. After incubation, the cells were then harvested and counted using a Microbeta counter.

[2] = tested on: blood cell subsets (cell surface antigens); test: In vivo/ex vivo immunophenotyping in the blood, mice treated 4 consecutive days, blood taken on day 5; design: species or system C57BL/6 mice
Procedure: C57BL.backslash.6 mice are treated with 0, 50, 100, 200, and 300 mg/kg of drug (in saline) for 4 consecutive days. Blood is taken by cardiac puncture on day 5, and the lymphocytes are isolated from spleen in the following manner:
1. Immunophenotyping (blood and spleen)
Cell immunophenotyping is performed on blood and spleen. The following cell surface antigens are analyzed:
CD4 (T helper/inducer, binds class II-restricted T cells);
CD8 (cytotoxic T cells, CTL adhesion);
MAC-1 (monocyte/macrophage);
NK (natural killer cells);
CD45 (all leukocytes, protein tyrosine phosphatase).

Toxicity in vivo = settings: animals treated with 50, 100, 200, and 300 mg/kg
From the text: peptide #1 (SEQ. ID NO:1) appears to be non-toxic.

[3] = Stability in Human Whole Blood at 37° C., HPLC; format: in vitro ADME; design: half-life: dose or concentration left out as unconfirmed; settings: for HPLC AREA: human whole blood 37° C.
Procedure: The procedures are the same as example 5 with the exceptions that human whole blood was substituted for rat whole blood, and that in Step 2, (blood incubation) aliquotes were taken at the following times: […]

## NCCCC[C@H](N)C(=O)N[C@@H](CC(N)=O)C(=O)N1CCC[C@H]1C(=O)N[C@@H](Cc1ccc(O)cc1)C(=O)O [PEPTIDE #1, H-Lys-Asn-Pro-Tyr-OH] (H-KNPY-OH)
[1]
  MLR: 0
[2]; 50 mg/kg
  B cell subset, relative percentage: 23.57
  CD4+ CD8+ cell subset, relative percentage: 3.65
  CD4+ CD8- cell subset, relative percentage: 27.15
  CD4+ CD11+ cell subset, relative percentage: 0.53
  CD4+ CD11- cell subset, relative percentage: 34.10
  CD4+ CD45+ cell subset, relative percentage: 26.95
  CD4+ CD45- cell subset, relative percentage: 3.80
  CD4- CD8+ cell subset, relative percentage: 11.20
  CD4- CD8- cell subset, relative percentage: 58.05
  CD4- CD11+ cell subset, relative percentage: 7.67
  CD4- CD11- cell subset, relative percentage: 57/73
  CD4- CD45+ cell subset, relative percentage: 65.30
  CD4- CD45- cell subset, relative percentage: 3.90
  CD8+ CD45+ cell subset, relative percentage: 13.70
  CD8+ CD45- cell subset, relative percentage: 0.55
  CD8- CD45+ cell subset, relative percentage: 76.15
  CD8- CD45- cell subset, relative percentage: 9.60
  NK+ CD3+ cell subset, relative percentage: 7.83
  NK+ CD3- cell subset, relative percentage: 10.47
  NK- CD3+ cell subset, relative percentage: 41.23
  NK- CD3- cell subset, relative percentage: 40.53
  Non B cell subset, relative percentage: 76.40
[2]; 100 mg/kg
  B cell subset, relative percentage: 19.23
  CD4+ CD8+ cell subset, relative percentage: 27.20
  CD4+ CD8- cell subset, relative percentage: 28.55
  CD4+ CD11+ cell subset, relative percentage: 0.23
  CD4+ CD11- cell subset, relative percentage: 41.67
  CD4+ CD45+ cell subset, relative percentage: 46.75
  CD4+ CD45- cell subset, relative percentage: 8.90
  CD4- CD8+ cell subset, relative percentage: 11.50
  CD4- CD8- cell subset, relative percentage: 32.85
  CD4- CD11+ cell subset, relative percentage: 3.00
  CD4- CD11- cell subset, relative percentage: 55.13
  CD4- CD45+ cell subset, relative percentage: 37.30
  CD4- CD45- cell subset, relative percentage: 7.00
  CD8+ CD45+ cell subset, relative percentage: 31.95
  CD8+ CD45- cell subset, relative percentage: 6.20
  CD8- CD45+ cell subset, relative percentage: 47.55
  CD8- CD45- cell subset, relative percentage: 14.35
  NK+ CD3+ cell subset, relative percentage: 2.80
  NK+ CD3- cell subset, relative percentage: 6.50
  NK- CD3+ cell subset, relative percentage: 37.57
  NK- CD3- cell subset, relative percentage: 53.13
  Non B cell subset, relative percentage: 80.77
[2]; 200 mg/kg
  B cell subset, relative percentage: 20.10
  CD4+ CD8+ cell subset, relative percentage: 16.11
  CD4+ CD8- cell subset, relative percentage: 24.11
  CD4+ CD11+ cell subset, relative percentage: 0.50
  CD4+ CD11- cell subset, relative percentage: 39.73
  CD4+ CD45+ cell subset, relative percentage: 33.01
  CD4+ CD45- cell subset, relative percentage: 6.22
  CD4- CD8+ cell subset, relative percentage: 8.57
  CD4- CD8- cell subset, relative percentage: 37.41
  CD4- CD11+ cell subset, relative percentage: 5.50
  CD4- CD11- cell subset, relative percentage: 54.30
  CD4- CD45+ cell subset, relative percentage: 40.63
  CD4- CD45- cell subset, relative percentage: 6.74
  CD8+ CD45+ cell subset, relative percentage: 20.68
  CD8+ CD45- cell subset, relative percentage: 4.13
  CD8- CD45+ cell subset, relative percentage: 49.80
  CD8- CD45- cell subset, relative percentage: 10.39
  NK+ CD3+ cell subset, relative percentage: 4.57
  NK+ CD3- cell subset, relative percentage: 8.70
  NK- CD3+ cell subset, relative percentage: 31.73
  NK- CD3- cell subset, relative percentage: 55.07
  Non B cell subset, relative percentage: 79.90
[2]; 300 mg/kg
  B cell subset, relative percentage: 33.67
  CD4+ CD8+ cell subset, relative percentage: 2.37
  CD4+ CD8- cell subset, relative percentage: 31.07
  CD4+ CD11+ cell subset, relative percentage: 0.37
  CD4+ CD11- cell subset, relative percentage: 29.53
  CD4+ CD45+ cell subset, relative percentage: 30.67
  CD4+ CD45- cell subset, relative percentage: 2.77
  CD4- CD8+ cell subset, relative percentage: 16.67
  CD4- CD8- cell subset, relative percentage: 49.90
  CD4- CD11+ cell subset, relative percentage: 5.07
  CD4- CD11- cell subset, relative percentage: 65.03
  CD4- CD45+ cell subset, relative percentage: 62.10
  CD4- CD45- cell subset, relative percentage: 4.47
  CD8+ CD45+ cell subset, relative percentage: 18.10
  CD8- CD45+ cell subset, relative percentage: 73.03
  CD8- CD45- cell subset, relative percentage: 8.83
  NK+ CD3+ cell subset, relative percentage: 9.97
  NK+ CD3- cell subset, relative percentage: 11.87
  NK- CD3+ cell subset, relative percentage: 42.43
  NK- CD3- cell subset, relative percentage: 35.77
  Non B cell subset, relative percentage: 66.30
  change of the relative percentage of B cell (in words): significant increase
Toxicity in vivo
  toxicity in vivo (in words): No apparent toxicity
[3]; 0 min
  HPLC AREA: 887657
[3]; 15 min
  HPLC AREA: 354842
[3]; 30 min
  HPLC AREA: 127725
[3]; 45 min
  HPLC AREA: 0
[3]; human, human whole blood, 37° C.
  half-life: ~20 min
